≈ marks a conversion by molar mass, not a printed value. Starred links: 1 amine or outer side, 2 acyl side, 3 side chain; linkers in the order of their positions; H or OH if unused. Positions of bridges follow the written chain, without caps; N, C: chain ends. Non-standard residues stand in square brackets, D forms with d. Residues, ends and D or L forms follow the SMILES beside them. X1 = CC1CC(C2=NC(C(=O)[*:2])CS2)N1[*:1]; NMeV = CN[CH](C(=O)O)C(C)C; X2 = O=C(C(O)CO[*:2])[*:1]; Pip = O=C(O)[CH]1CCCCN1; Dhb = C/C=C(\N)C(=O)O
Columns and labels:
[1] = test system: type I interferon response (Mx2-promoter controlled luciferase); assay: Bioluminescent imaging of type I IFN reporter mice (BAC Mx2Luc2); format: in vivo; settings: 20 μg i.v., IFN-β i.v. after 1 h
Experimental: In FIG. 8 the inhibitory response of Vioprolide A on the type I interferon response is shown. In FIG. 8A a female type I IFN reporter mice, which contain the IFN-responsive BAC Mx2Luc2, were i.v. treated with 20 μg of Vioprolide A (in 100% EtOH). First image was taken immediately after Vioprolide A treatment. After 1 h mice were i.v. injected with 5.000 U/ml IFN-β (PBL). Three hours after IFN-treatment second series of images were taken. For control one animal was only treated with Vioprolide A or with IFN, respectively. Bioluminescent images were obtained using the IVIS200 System (Xenogen). […] Rainbow scales indicate number of photons measured per second×cm2×sr.
For the following in vivo experiment 20 μg of Vioprolide A were employed. This amount was calculated according to a publication appointing the lethal dose of this compound to be 3 mg/kg and moreover to concentrations used for anti-tumour studies Thus, type I IFN reporter mice were intravenously injected with Vioprolide A and subjected for bioluminescent imaging. After one hour mice were additionally treated with IFN-β and responses were assessed after a three-hour incubation time. […]
In FIG. 8A female type I IFN reporter mice, which contain the IFN-responsive BAC Mx2Luc2, were i.v. treated with 20 μg of Vioprolide A (in 100% EtOH). […] Rainbow scales indicate number of photons measured per second×cm2×sr.

[2] = test system: vesicular stomatitis virus (VSV); format: cell-based
[3] = test system: type I IFN response (IFN-β induced Mx2-driven luciferase activity); assay: Type I IFN reporter cell assay (Mx2-driven Firefly luciferase, NIH3T3 Mx2-Luc2); format: cell-based, murine
Experimental: In FIG. 6A the type I IFN reporter cells were pretreated with different concentrations of Vioprolide A (0, 5, 10, 30, 50 or 100 ng/ml). After pre-treatment for two hours cells were stimulated with IFN-β (500 U/ml) in the continuous presence of the indicated Vioprolide concentrations. In FIG. 6B type I IFN reporter cells were pretreated with IFN-β ([…]). After four hours cells were additionally stimulated with different concentrations of Vioprolide A (0, 5, 10, 30, 50 or 100 ng/ml). Untreated cells were used as control (Crtl). Luciferase activity was measured after 24 hours and relative luminescent units (RLU) were calculated to one μg of protein detected by Bradford assay.
For measuring type I IFNs BAC-based reporter constructs have been used. BACs harbouring the cDNA of Firefly luciferase 2 (luc2) under control of the Mx2 promoter were engineered, NIH3T3 Mx2-Luc2. The change from Luc+ (pGL3 basic, Promega) used in the before mentioned reporter constructs to the next generation luciferase (pGL4.10, Promega) was performed, as Luc2 theoretically promised to achieve higher signal intensities and therefore might also be more practicable for further in vivo imaging experiments. This newly generated BAC was electroporated into the murine fibroblast cell line NIH/3T3.
After overnight incubation luciferase activity was determined and calculated according to protein levels to scale with the antiproliferative effects of Vioprolide. […] The median inhibitory concentration (IC50), which reduces IFN-induced responses by 50%, was calculated to be 10 ng/ml of Vioprolide A.
In FIG. 6A type I IFN reporter cells, NIH3T3 Mx2-Luc2 were pretreated with different concentrations of Vioprolide A (−, 5, 10, 30, 50 or 100 ng/ml). After pre-treatment for two hours cells were stimulated with IFN-β (500 U/ml) in the continuous presence of the indicated Vioprolide concentrations. In FIG. […] type I IFN reporter cells were pretreated with IFN-β (500 U/ml). After four hours cells were additionally stimulated with different concentrations of Vioprolide A (−, 5, 10, 30, 50 or 100 ng/ml). Untreated cells were used as control (CM). Luciferase activity was measured after 24 hours and relative luminescent units (RLU) were calculated to one μg of protein detected by Bradford assay.
Next, the effect of Vioprolide A on previously activated type I IFN signalling was addressed. This was performed to exclude a direct inhibitory interaction of this natural compound with IFN molecules or their cognate receptors type I IFN reporter cells were therefore stimulated with IFN-β four hours prior to treatment with different Vioprolide A concentrations. After overnight incubation cells were harvested and luciferase activity was assayed. […] A first significant reduction of luciferase activity (for p<0.05) could be visualized with 30 ng/ml Vioprolide A (FIG. 6B). The IC50 was identified to 20 ng/ml.

[4] = according to a publication; cited from earlier work
[5] = test system: type I IFN responses (IFN-inducible Mx2-promoter, tdTomato); assay: Mx2Tom reporter cells, tdTomato expression by flow cytometry; format: cell-based; settings: IFN-β plus different concentrations, overnight incubation
Experimental: This allowed assessment of the Vioprolide A effect on the IFN system on a single cell level. Thus, cells were stimulated with IFN-β as wells as different concentrations of Vioprolide A and expression of tdTomato was analyzed after overnight incubation using flow cytometry.

[6] = test system: type II IFN response (IFN-γ, Gbp2 promoter); assay: Type II IFN reporter cell assay (Gbp2-driven Renilla luciferase, NIH3T3 Gbp2-RLuc); format: cell-based, murine; settings: 500 U/ml IFN-γ, Vioprolide A one hour later, all concentrations tested (50, 100, 200 ng/ml); not related to protein
Experimental: IFN-γ reporter NIH/3T3 cells harbouring the recombinant BAC Gbp2RLuc were seeded on 96-well-plates and treated with IFN-γ ([…]) or left untreated (“−”). After one hour cells were exposed to different concentrations of Vioprolide A (−, 50, 100 or 200 ng/ml) and incubated overnight. Gbp2-driven Renilla luciferase expression was determined by luciferase assay. Results are expressed as fold induction of basal expression (n=3).
In addition, Vioprolide A might also modulate type II IFN responses. […] Hereby, expression of Renilla luciferase is driven by the type II IFN responsive promoter of the Gbp2 gene obtained using a BAC containing the GBP2 gene locus and following the method described above. In this experiment, reporter cells, NIH3T3 Gbp2-RLuc were seeded on […], stimulated with 500 U/ml IFN-γ and one hour later incubated with different concentrations of Vioprolide A. Afterwards the IFN response was analysed by quantifying Renilla luciferase activity. Since this assay was performed on a microtiter format, quantification of protein amounts by former used BCA as well as Bradford assay was impossible. […] Thus, evidence for a negative influence of Vioprolide A on both type I and type II IFN responses was provided.

C/C=C1\NC(=O)C2CSC(=N2)C2CC(C)N2C(=O)C(CC(C)C)NC(=O)C(C)NC(=O)C(O)COC(=O)C(C(C)C)N(C)C(=O)C(C(C)O)NC(=O)C2CCCCN2C1=O (stereo not shown) [Vioprolide A] (AL[X1][Dhb][Pip]T[NMeV]; linker N-C via X2; configuration not given here)
light emission after IFN treatment relative to combined IFN and Vioprolide stimulation ([1]; 3 h after IFN, average radiance, FIG. 8B): ten times higher | luciferase activity by optical imaging versus animal given IFN-β alone ([1]; imaging 3 h after IFN, one mouse per stimulation): less luciferase activity | effect on IFN-mediated antiviral activities [2]: inhibitory effect on IFN-mediated antiviral activities | reporter expression ([3]; 100 ng/ml, IFN-β four hours prior to treatment): significant reduction of reporter expression | Mx2-driven luciferase activity at strongest inhibition ([3]; 100 ng/ml, pre-treatment 2 h before IFN-β, FIG. 6A): dramatic decrease of Mx2-driven luciferase activity down to background levels | IC50 on previously activated type I IFN signalling ([3]; IFN-β (500 U/ml) four hours prior to Vioprolide A, FIG. 6B): 0.02 µg/mL (≈ 0.0232 µM) | concentration giving first significant reduction of luciferase activity (p<0.05) ([3]; IFN-β four hours prior to Vioprolide A, FIG. 6B): 30 ng/mL | median inhibitory concentration (IC50), which reduces IFN-induced responses by 50% ([3]; Vioprolide A two hours prior to IFN-β (500 U/ml), luciferase related to protein, FIG. 6A): 0.01 µg/mL | impact on IFN responses in vitro compared within the class of Vioprolides ([3]; cell culture systems, screening): highest impact on IFN responses in vitro | effect on the type I IFN response ([3]; pre-treatment 2 h before IFN-β, all concentrations tested (5-100 ng/ml)): inhibitory effect | lethal dose [4]: 3 mg/kg | effect on tdTomato reporter expression [5]: dose-dependent inhibitory effect | response to type II IFN (Renilla luciferase activity) [6]: decreased response to type II IFN
